Test results published in ChEMBL document CHEMBL1201862, “PubChem BioAssay data set” (2004).
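Results reflect a 48-hour exposure of cells in 96-well plates to compound at five concentrations. GI50 is the concentration that inhibits growth by half.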 The source made the active and inactive calls. No stated cut-off is given here; in the data, active = GI50 up to about 1.1 µM and inactive = higher. Residues, ends and D or L forms follow the SMILES beside them. *: point of attachment. Boc = CC(C)(C)OC(=O)*; OBn = c1ccc(CO*)cc1; Bn = c1ccc(C*)cc1

Experiments:
Test in all cases: NCI anticancer screen, dose series, 48 h
SF-295 = system: SF-295
SW-620 = system: SW-620
SF-539 = system: SF-539
UACC-257 = system: UACC-257
HL-60 = system: HL-60
Malme-3M = system: Malme-3M
OVCAR-3 = system: OVCAR-3
HCT-116 = system: HCT-116
ACHN = system: ACHN
786-0 = system: 786-0
NCI-H226 = system: NCI-H226
A549 = system: A549
SNB-19 = system: SNB-19
IGROV-1 = system: IGROV-1
MDA-MB-435 = system: MDA-MB-435
NCI/ADR-RES = system: NCI/ADR-RES
MCF7 = system: MCF7
MDA-N = system: MDA-N

Measured: GI50

CC(=O)O/C(C)=C\C(=O)O/N=C(\N)c1ccc(C)cc1
inactive: SF-295 35.2 µM | SW-620 39.4 µM | SF-539 20.6 µM | UACC-257 30.8 µM | HL-60 21.1 µM | Malme-3M 25.4 µM | OVCAR-3 34.7 µM | HCT-116 19.9 µM | ACHN 33 µM | 786-0 52 µM | NCI-H226 28.1 µM | A549 40.4 µM | SNB-19 43.7 µM | IGROV-1 28.3 µM

CC(C)CC(NC(=O)C(Cc1ccccc1)NC(=O)C(COCc1ccccc1)NC(=O)OC(C)(C)C)C(=O)OCc1ccccc1 (stereo not drawn) (Boc-Ser(Bn)-Phe-Leu-OBn; configuration not given here)
inactive: SF-295 21.8 µM | MDA-MB-435 > 10 µM | SW-620 22.1 µM | NCI/ADR-RES > 100 µM | SF-539 33.9 µM | UACC-257 86.7 µM | HL-60 4.01 µM | Malme-3M 78.2 µM | MCF7 37.9 µM | OVCAR-3 20 µM | HCT-116 18.5 µM | MDA-N 69 µM | ACHN 17.9 µM | 786-0 17.1 µM | SNB-19 > 100 µM | IGROV-1 17.4 µM

O=c1oc2c(Cl)cc(Cl)cc2cc1C1=CSC2=NCCN12
inactive: SF-295 40 µM | MDA-MB-435 32 µM | SW-620 50.5 µM | NCI/ADR-RES 79.6 µM | SF-539 > 100 µM | UACC-257 > 100 µM | HL-60 30.3 µM | MCF7 28.8 µM | OVCAR-3 26.7 µM | HCT-116 31 µM | MDA-N 36.2 µM | ACHN 49.7 µM | 786-0 40.8 µM | A549 64.3 µM | SNB-19 44.8 µM | IGROV-1 48.8 µM

CCC(C=O)P1(=O)OC(C)(C)CN1C(C)(C)C (stereo not given)
inactive: SF-295 32.5 µM | MDA-MB-435 99.5 µM | SW-620 > 100 µM | NCI/ADR-RES 92.3 µM | SF-539 > 100 µM | UACC-257 > 100 µM | Malme-3M 68.1 µM | MCF7 84.3 µM | OVCAR-3 20.6 µM | HCT-116 59.8 µM | ACHN > 100 µM | 786-0 > 100 µM | NCI-H226 > 100 µM | A549 > 100 µM | SNB-19 > 100 µM | IGROV-1 > 100 µM

COc1c2cc(C(C)(C)C)cc1Cc1cccc(c1OCc1cccc([N+](=O)[O-])c1)Cc1cc(C(C)(C)C)cc(c1OC)Cc1cccc(c1OCc1cccc([N+](=O)[O-])c1)Cc1cc(C(C)(C)C)cc(c1OC)Cc1cccc(c1OCc1cccc([N+](=O)[O-])c1)C2
inactive: SF-295 > 50 µM | MDA-MB-435 > 50 µM | SW-620 > 50 µM | NCI/ADR-RES > 50 µM | SF-539 > 50 µM | UACC-257 > 50 µM | HL-60 > 50 µM | Malme-3M > 50 µM | MCF7 > 50 µM | OVCAR-3 > 50 µM | HCT-116 > 50 µM | MDA-N > 50 µM | ACHN > 50 µM | 786-0 > 50 µM | A549 > 50 µM | SNB-19 > 50 µM | IGROV-1 > 50 µM

N#CC(c1nc2ccccc2s1)c1ncnc(Cl)c1[N+](=O)[O-] (stereo not given)
inactive: SF-295 > 100 µM | MDA-MB-435 29.2 µM | SW-620 19.3 µM | NCI/ADR-RES 17.8 µM | SF-539 30.3 µM | UACC-257 20.6 µM | Malme-3M 19.4 µM | OVCAR-3 20.1 µM | HCT-116 12.6 µM | MDA-N 18.2 µM | ACHN 37.6 µM | 786-0 20.1 µM | NCI-H226 20.2 µM | A549 36.3 µM | SNB-19 32.1 µM | IGROV-1 14.6 µM
